1 substance from patent publication US8841274B2, “Protein arginine N-methyltransferase-5 method of cancer treatment” (priority 2009, dated 2014) can be followed below.

The test system of test [1] is p73-luciferase or cyclinE-luciferase. As to the kind of experiment: Reporter assay with E2F-responsive promoters. In kind it is cell-based. The conditions noted are these: U2OS cells, 48 h, equivalent protein level; compared to wild-type E2F-1; n=3. How it is done:
To further explore the role of arginine methylation in the transcription properties of E2F-1, wild-type E2F-1 was compared with the KK and KKK mutants in a reporter-based transfection assay, using E2F-responsive promoters derived from E2F target genes. The assay was performed under conditions in which each mutant protein was expressed at an equivalent level to wild-type E2F-1 (FIG. 4aii and bii), thus ruling out any difference in activity that could be attributed to protein levels. […] FIGS. 4a and b show the transcription properties of wild-type E2F-1, KK and KKK mutants. U2OS cells were transfected with expression vectors encoding WT or mutant E2F-1 protein, together with p73-luciferase (A) or cyclinE-luciferase (B) for 48 h as indicated, and pCMV-βgal to monitor transfection efficiency. Relative luciferase activity (luciferase/βgal) is shown together with expression level of ectopic proteins; n=3. […] PRMT5 (P) or control (C) non-targeting siRNA was transfected into U2OS cells together with p73-luciferase (i) or cyclinE-luciferase (ii) for 48 h, together with pCMV-βgal to monitor transfection efficiency. Relative luciferase activity is shown together with expression level of the ectopic proteins.
Cells were transfected with expression vectors (1 μg) encoding WT or the mutant E2F-1 proteins as indicated with E2F responsive luciferase reporters, namely p73-luciferase or cyclinE-luciferase, together with pCMV-βgal to monitor transfection efficiency. Cells were harvested, lysed 48 h post-transfection and luciferase activity measured as previously described (Janson et al 2008).
A general note: A reporter such as luciferase makes a cellular process visible.

The next test has as its system U2OS cells. As to the kind of experiment: Apoptosis (sub-G1) by FACS in U2OS cells. In kind it is cell-based. The conditions noted are these: U2OS cells, expression vectors 48 h; relative to wild-type E2F-1; n=2. How it is done: Whether arginine methylation influences E2F-1-dependent apoptosis was investigated by comparing the ability of wild-type E2F-1 to the KK and KKK mutants to induce cells with a sub-G1 DNA content (Stevens et al 2003). […] U2OS cells were transfected with expression vectors encoding wild-type E2F-1, KK and KKK as indicated for 48 h and analysed by FACS as described. The graph represents the relative change in sub-G1 populations compared to the empty vector control treatment; n=2.
The graph (i) represents the relative number of sub-G I cells (compared to the control treatment) in the indicated conditions; and (ii) the level of PRMT5 and E2F-1; n=3.
PRMT5 (P) or control (C) non-targeting siRNA (25 nM) was transfected into HCT116 p53+/+ (i), HCT116 p53−/− (ii) or U2OS (iii) cells and the cells were harvested 72 h post-transfection and analysed by FACS. The graph represents the actual number of sub-G1 cells in the indicated conditions, and the immunoblot the level of PRMT5 and actin control; n=3.
PRMT5 (P), E2F-1 (E) or control (C) non-targeting siRNA was transfected into U2OS cells and harvested 72 h post-transfection and analysed by FACS as described.
Cells were transfected with the indicated expression vectors together with pBB14-GFP (for 48 h) to monitor transfection efficiency or siRNA (for 48 h or 72 h) with or without treatment of the DNA damage agent for the last 16 h. Then, cells were fixed and stained with propidium iodide and analyzed by Flow Cytometry.
For orientation: Flow cytometry measures light scatter and fluorescence of single cells or particles in a stream.

For “KKK: methylation-defective E2F-1 protein containing the mutations R109K, R111K and R113K”, the “transcriptional activity (relative luciferase activity)” value in test [1] is listed as “increased transcriptional activity”. Also, the “apoptosis (sub-G1 population)” value in the test on U2OS cells was “increased levels of apoptosis”.
